Experimental data from patent US8481005B2, “Methods to prevent cytotoxicity using N-acetyl-cysteine” (priority 2006, dated 2013).

Columns and labels:
caspases 9 and 3 = assay: Full length caspases 9 and 3 in HEp2 cells (Western blot); assay type: cell-based; conditions: 0.0164M HEMA about 18 hours
Description: Protein concentrations were determined by a DC protein assay kit (Bio-Rad, Hercules, Calif.). An aliquot of total protein lysate was diluted in an equal volume of about 2% SDS sample buffer, about 6.2 mM Tris (pH about 6.8), about 2.3% SDS, about 5% mercaptoethanol, about 10% glycerol, and about 0.02% bromophenol blue and boiled for about 10 minutes. The cell lysates (40 μg) were then electrophoresed on 12% SDS-PAGE gels and were subjected to Western blot analysis. Levels of β-tubulin and actin were used to normalize the protein expression. Relative concentrations were assessed by densitometric analysis of digitized autographic images. The anti-actin and anti-β-tubulin monoclonal antibodies were purchased from Santa Cruz Biotechnology (Santa Cruz, Calif.) and from Calbiochem (San Francisco, Calif.) respectively. The polyclonal antibodies anti-caspase 3 and anti-caspase 9, were obtained from Cell Signaling (San Diego, Calif.). […] Decreased Processing and Cleavage of Caspase 3 in the Presence of NAC

Jurkat T cells = assay: Cell death in Jurkat T cells (PI/FITC-Annexin V); assay type: cell-based; conditions: 0.082M-0.0082M HEMA and/or NAC 20 mM simultaneously; overnight
Description: After an overnight incubation the levels of cell death in Jurkat T cells were determined using dual staining with PI/FITC-Annexin V as described previously (FIG. 19B). 10,000 events were analyzed for each sample. Similar results were obtained when apoptosis was assessed by PI staining of ethanol fixed Jurkat T cells. • 2. Decreased Levels of Full Length Caspase 9 and Caspase 3 in HEMA-Treated Keratinocytes

mesenchymal stem cells = assay: Cell death of mesenchymal stem cells (FITC-Annexin V and PI); assay type: cell-based
Description: Treated mesenchymal stem cells were then removed and cell death determined using FITC-Annexin V and PI staining.

Jurkat cells = assay: Mitochondrial membrane potential in Jurkat cells (DiOC6); assay type: cell-based; conditions: HEMA alone or with NAC 20 mM
Description: The membrane potential was assessed by staining with DiOC6 which is a positively charged dye. At low concentrations, it accumulates in mitochondria due to their large negative membrane potential. However when the membrane potential is disrupted there is less binding of this dye.

[1] = test system: human dental pulp stromal cells; assay: Human dental pulp stromal cells, 4 hour treatment: VEGF ELISA and apoptosis; assay type: cell-based; conditions: HEMA alone or with NAC 20 mM, then overnight
Description: After this treatment cells were washed and incubated overnight.

RAW 264.7 cells = assay: Morphological changes in RAW 264.7 cells (inverted microscope); assay type: cell-based, murine; conditions: HEMA alone or with simultaneous NAC 20 mM, overnight
Description: Peripheral Blood Mononuclear Cells

[2] = test system: human smooth muscle cells; assay: VEGF secretion of human smooth muscle cells (ELISA); assay type: cell-based; conditions: HEMA (0.082M) alone or with NAC 20 mM, 4 hours, then overnight
GAPDH mRNA = GAPDH mRNA in dental pulp stromal cells (RT-PCR); assay type: cell-based; conditions: HEMA alone or with NAC 20 mM, 4 hours
Description: The role of GAPDH in HEMA-mediated cytotoxicity was also evaluated. […] In comparison no significant decrease in β-actin and collagen-1 under the same experimental conditions could be seen.

[3] = test system: HEp2 cells co-cultured with PBMCs; assay: VEGF in co-cultures of HEMA/NAC treated HEp2 cells with PBMCs (multiplex cytokine array); assay type: cell-based, human; parameters: unit not given here
Description: (§1) Treatment with NAC inhibits HEMA-mediated cell death and cytotoxicity. Thus, its ability to protect the function of cells in the presence of HEMA was also evaluated further. […] The cells were trypsinized and washed 4 times with 1×PBS before they were co-cultured with PBMCs obtained from a healthy individual. A 4:1 ratio of effector to target cells (PBMC:HEp2) were used in these cultures. PBMCs were treated with and without IL-2 before they were co-cultured with HEp-2 cells. The supernatants were then removed from the co-cultures after an overnight incubation and analyzed using the FAST QUANT multiplex cytokine array kit to determine the levels of secreted cytokines.

Caspase 3 = assay: Full length caspase 3 in keratinocytes; assay type: cell-based; conditions: about 8 hours, NAC 20 mM
Description: Roles of NFkB and GAPDH in HEMA-Mediated Cell Death

HaCaT cells = assay: PI/Annexin V cell death in HaCaT skin keratinocytes; assay type: cell-based; conditions: HEMA 0.082M to 0.00164M alone or with NAC 20 mM, overnight
Description: Ten thousand events were analyzed for each sample. (FIG. 5)

[4] = test system: human mesenchymal stem cells; assay: VEGF secretion of human mesenchymal stem cells (ELISA); assay type: cell-based; conditions: HEMA alone or with NAC 20 mM, 4 hours, then overnight
odontoblasts = assay: ALP staining of rat odontoblasts; assay type: cell-based; conditions: 0.00328M HEMA; overnight, 7 days or 14 days
Description: Restoring the function of cells is also very important. Therefore, ALP staining was performed as a measure of odontoblast function. […] Following this incubation, cells were washed twice with PBS and incubated with 120 mM of Tris buffer (pH=8.4) containing 0.9 mM Napthol AS-M Phosphate and 1.8 mM Fast Red TR for 30 minutes at 37° C. Afterwards the cells were washed three times with PBS and then fixed with 1 ml cold ethanol (100%) for about 30 minutes. The stained cultures were digitized using a scanner.

[5] = test system: human dental pulp stromal cells; assay: VEGF by ELISA, human dental pulp stromal cells, NAC versus vitamin E (Table 5); assay type: cell-based; conditions: 4 hours
Description: Following the 4 hour incubation, cells were analyzed for apoptosis using FTIC-Annexin V and PI.
Dental pulp stromal cells were then treated as described in the preceding paragraph with supernatants removed and assayed for VEGF levels by ELISA following the 4 hour incubation.

[6] = test system: HEp2 cells co-cultured with PBMCs; assay: IL-6 in co-cultures of HEMA/NAC treated HEp2 cells with healthy donor PBMCs; assay type: cell-based, human
Description: as §1, with “HEp-2 cells obtained from ATCC were cultured in DMEM supplemented” for “Treatment”, “10% FBS, 1% sodium pyruvate, 1% non essential amino acids” for “NAC inhibits HEMA-mediated cell death”, “1% antibiotic-antimycotic solution.” for “cytotoxicity. Thus, its ability to protect the function of cells in the presence of HEMA was also evaluated further.”

**Q.** Which “full length caspases 9 and 3 levels” value (caspases 9 and 3) does the source give for C=C(C)C(=O)OCCO [HEMA, hydroxyethyl methacrylate] here?
**A.** The value was “diminishes full length caspases 9 and 3 levels”.

**Q.** What about the apoptotic cell death (Jurkat T cells) of the same compound?
**A.** The apoptotic cell death was “undergo apoptotic cell death”.

**Q.** What about the “cells that underwent cell death” value (mesenchymal stem cells; mesenchymal stem cells, 0.0164M HEMA) of the same compound?
**A.** Its value is 86.1%.

**Q.** What about the “mitochondrial membrane potential (Δψm)” value (Jurkat cells) of the same compound?
**A.** The value was “decrease in mitochondrial membrane potential”.

**Q.** What about the VEGF secretion [1] of the same compound?
**A.** The VEGF secretion was “large effects”.

**Q.** What about the cell death [1] of the same compound?
**A.** Its cell death is “large effects”.

**Q.** And the “morphological changes (decreased size, blebbing, apoptotic bodies)” value (RAW 264.7 cells)?
**A.** The value was “morphological changes indicative of apoptosis”.

**Q.** What about the VEGF secretion [2] of the same compound?
**A.** The VEGF secretion was “significantly reduced VEGF secretion”.

**Q.** And the “GAPDH mRNA” value (GAPDH mRNA)?
**A.** Its value is “significant inhibition of GAPDH mRNA”.

**Q.** What about the VEGF ([3]; HEp2 +0.00164M HEMA, −/+NAC, Control PBMC +IL-2) of the same compound?
**A.** The VEGF was 6923.

**Q.** And the VEGF ([3]; HEp2 +0.00164M HEMA, −/+NAC, Control PBMC −IL-2)?
**A.** The VEGF was 6640.

**Q.** What about the VEGF ([3]; HEp2 +0.00164M HEMA, −/+NAC, No PBMC) of the same compound?
**A.** The VEGF was 7139.

**Q.** And the VEGF ([3]; HEp2 +0.0164M HEMA, −/+NAC, Control PBMC +IL-2)?
**A.** Its VEGF is 323.

**Q.** And the VEGF ([3]; HEp2 +0.0164M HEMA, −/+NAC, Control PBMC −IL-2)?
**A.** Its VEGF is 582.

**Q.** What about the VEGF ([3]; HEp2 +0.0164M HEMA, −/+NAC, No PBMC) of the same compound?
**A.** The VEGF was 294.

**Q.** And the “levels of full length caspase 3 (processing of caspase 3)” value (Caspase 3)?
**A.** Its value is “decrease in the levels of full length caspase 3”.

**Q.** And the “apoptotic cell death (PI/Annexin V)” value (HaCaT cells)?
**A.** The value was “dose dependent induction of apoptotic cell death”.

**Q.** What about the VEGF secretion [4] of the same compound?
**A.** Its VEGF secretion is “significantly decreased secretion of VEGF”.

**Q.** What about the “ALP staining (odontoblast function)” value (odontoblasts) of the same compound?
**A.** The value was “significantly less staining”.

**Q.** And the “VEGF levels by ELISA, Human dental pulp stromal cells” value ([5]; HEMA 0.00164M, alone or with NAC and/or vitamin E)?
**A.** The value was 57.26.

**Q.** What about the VEGF levels by ELISA, Human dental pulp stromal cells ([5]; HEMA 0.0082M, alone or with NAC and/or vitamin E) of the same compound?
**A.** The VEGF levels by ELISA, Human dental pulp stromal cells was 72.6 pg/mL.

**Q.** What about the “VEGF levels by ELISA, Human dental pulp stromal cells” value ([5]; HEMA 0.0164M, alone or with NAC (20 mM) and/or vitamin E (5 mM)) of the same compound?
**A.** The value was 73.79.

**Q.** What about the IL-6 ([6]; HEp2 +0.00082M HEMA, −/+NAC, PBMC +IL-2) of the same compound?
**A.** The IL-6 was 371 pg/mL.

**Q.** And the IL-6 ([6]; HEp2 +0.00082M HEMA, −/+NAC, PBMC −IL-2)?
**A.** Its IL-6 is 204 pg/mL.

**Q.** And the IL-6 ([6]; HEp2 +0.00164M HEMA, −/+NAC, PBMC +IL-2)?
**A.** The IL-6 was 264 pg/mL.

**Q.** And the IL-6 ([6]; HEp2 +0.00164M HEMA, −/+NAC, PBMC −IL-2)?
**A.** Its IL-6 is 208 pg/mL.

**Q.** And the IL-6 ([6]; HEp2 +0.0082M HEMA, −/+NAC, PBMC +IL-2)?
**A.** Its IL-6 is 243 pg/mL.

**Q.** What about the IL-6 ([6]; HEp2 +0.0082M HEMA, −/+NAC, PBMC −IL-2) of the same compound?
**A.** Its IL-6 is 192 pg/mL.

**Q.** What about the IL-6 ([6]; HEp2 +0.0164M HEMA, −/+NAC, PBMC +IL-2) of the same compound?
**A.** Its IL-6 is 262 pg/mL.

**Q.** What about the IL-6 ([6]; HEp2 +0.0164M HEMA, −/+NAC, PBMC −IL-2) of the same compound?
**A.** The IL-6 was 191 pg/mL.

**Q.** What does the source list for CC(=O)N[C@@H](CS)C(=O)O [NAC, N-acetyl-cysteine]?
**A.** full length caspases 9 and 3 levels (caspases 9 and 3): inhibits HEMA-mediated decrease in caspases 9 and 3; apoptotic cell death (Jurkat T cells): significantly blocked; prevention of HEMA-mediated cell death (mesenchymal stem cells; NAC 20 mM, 18 hours): can prevent HEMA-mediated cell death; mitochondrial membrane potential (Δψm) (Jurkat cells): restored mitochondrial membrane potential; VEGF secretion [1]: strongly if not totally ameliorated; cell death [1]: strongly if not totally ameliorated; morphological changes (decreased size, blebbing, apoptotic bodies) (RAW 264.7 cells): inhibited the occurrence of these morphological changes; VEGF secretion [2]: could be reversed; GAPDH mRNA (GAPDH mRNA): prevented this inhibition; VEGF ([3]; HEp2 −HEMA (+NAC), Control PBMC +IL-2): 5376; VEGF ([3]; HEp2 −HEMA (+NAC), Control PBMC −IL-2): 5260; VEGF ([3]; HEp2 −HEMA (+NAC), No PBMC): 4714; levels of full length caspase 3 (processing of caspase 3) (Caspase 3): this decrease is inhibited; apoptotic cell death (PI/Annexin V) (HaCaT cells): considerably decreased the percentages of cells positive for PI/Annexin V staining; VEGF secretion [4]: prevented the HEMA-mediated decrease; ALP staining (odontoblast function) (odontoblasts): positive for ALP staining; VEGF levels by ELISA, Human dental pulp stromal cells ([5]; no HEMA, NAC (20 mM) and/or vitamin E (5 mM)): 1532.4; IL-6 ([6]; HEp2 −HEMA (+NAC), PBMC +IL-2): 1835 pg/mL; IL-6 ([6]; HEp2 −HEMA (+NAC), PBMC −IL-2): 880 pg/mL
